This passage reports fold induction and Ratio results from US7563813B2, “Iminothiazolidinone derivatives as SFRP-1 antagonists” (Wyeth, priority 2005, dated 2009).

The test concerns the target T1, hSFRP-1 (Homo sapiens, UniProt Q8N474).
T1 construct: expressed in transfected cells; host or cells: U2OS osteosarcoma cells (ATCC, HTB 96), transient co-transfection with Wnt 3, Wnt3A or Wnt 1, 16x TCF-tk-Luciferase reporter and CMV-beta-gal
T1 sequence (Q8N474 32-314): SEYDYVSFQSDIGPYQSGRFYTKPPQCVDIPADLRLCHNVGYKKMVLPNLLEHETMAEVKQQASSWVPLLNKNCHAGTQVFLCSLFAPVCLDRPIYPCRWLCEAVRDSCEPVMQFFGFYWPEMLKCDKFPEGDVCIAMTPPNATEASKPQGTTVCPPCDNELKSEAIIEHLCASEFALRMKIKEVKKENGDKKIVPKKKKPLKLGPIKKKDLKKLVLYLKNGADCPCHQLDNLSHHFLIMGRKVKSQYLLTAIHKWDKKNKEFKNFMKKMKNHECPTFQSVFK
Briefly: Cell-Based Assay for In Vitro Measurement of SFRP-1/SARP2 Antagonist Activity (U2OS cells, 16x TCF-tk-Luciferase reporter, Wnt + hSFRP-1 co-transfection). The conditions noted are these: initial single dose screening at 10 μM; for fold induction at 10 µM: luciferase reporter activity, fold induction over SFRP-1 control; for Ratio: ratio not defined. The procedure: Cell-Based Assay for In Vitro Measurement of SFRP-1/SARP2 Antagonist Activity
The following cell-based assay can be used to identify inhibitors of SFRP-1.
The osteosarcoma cell line, U2OS (ATCC, HTB 96), was passaged twice a week with growth medium (McCoy's SA medium containing 10% (v/v) fetal calf serum, 2 mM GlutaMAX-1, and 1% (v/v) Penicillin-Streptomycin). The cells were maintained in vented flasks at 37° C. inside a 5% CO2/95% humidified air incubator. One day prior to transfection, the cells were plated with growth medium at 25,000 cells/well into 96-well plates and incubated at 37° C. overnight.
The growth medium was removed, and the cells were washed once with OPTIMEM I (Gibco-BRL) medium (100 μl/well) to remove the serum and antibiotics. The wash medium was removed, and the cells were re-fed with OPTI-MEM I medium (100 μl/well). For each well of cells to be transfected, the following DNA's were diluted together in 25 μl OPTI-MEM I medium: 0.1 μg 16× TCF-tk-Luciferase reporter, 0.02 μg Wnt 3, Wnt3A, Wnt 1 or empty vector (Upstate Biotechnology), 0.075 μg hSFRP-1 or empty vector (pcDNA3.1, Invitrogen), and 0.025 μg CMV-®gal (Clonetech). For each well of cells to be transfected, 1 μl of Lipofectamine 2000 reagent (Invitrogen) was diluted in 25 μl OPTI-MEM I medium and incubated at room temperature for 5 minutes. The diluted DNA's were then combined with the diluted Lipofectamine 2000 (LF2000), and the mixture was incubated at room temperature for 20 minutes. Fifty μl of the DNA-LF 2000 mixture was added to each well, and the plate(s) were incubated at 37° C. in a 5% CO2/95% humidified air incubator for 4 hours. The cells were washed once with 150 μl/well of experimental medium (phenol red-free RPMI Medium 1640 containing 2% fetal bovine serum, 2 mM GlutaMAX-1, and 1% Penicillin-Streptomycin). Finally, the cells were treated overnight at 37° C. with 200 μl/well of experimental medium containing either vehicle (typically DMSO) or diluted compound in replicates of 8 wells/compound.
Initial single dose screening of test compounds was done at 10 μM.
Dose-response experiments were initially performed with the compounds in log increases from 1-10,000 nM. From these dose-response curves, EC50 values were generated.
After treatment, the cells were washed twice with 150 μl/well of PBS without calcium or magnesium and were lysed with 50 μl/well of 1× cell culture lysis reagent (Promega Corporation) on a shaker at room temperature for 30 minutes. Thirty μl aliquots of the cell lysates were transferred to 96-well luminometer plates, and luciferase activity was measured in a MicroLumat PLUS luminometer (EG&G Berthold), or a Victor (PerkinElmer Life Sciences) using […] of luciferase substrate (Promega Corporation). Following the injection of substrate, luciferase activity was measured for 10 seconds after a 1.6 second delay. Similarly, 10 μl aliquots of the cell lysates were transferred to separate 96-well luminometer plates, and 50 μl of Galacton chemiluminescent substrate (Tropix) was added to each well. The plates were covered and incubated on a rotary shaker at room temperature for one hour. ®gal activity was measured in a MicroLumat PLUS luminometer or Victor using 100 μl/well of Light Emission Accelerator (Tropix). Following the injection of the accelerator, ®gal activity was measured for 10 seconds after a 1.6 second delay. The luciferase and ®gal activity data were transferred from the luminometer to a PC and analyzed using the SAS/Excel program. After the luciferase activity was normalized to ®gal, the SAS/Excel program was used to determine the mean and standard deviation of each treatment, to analyze the data for statistical significance, and to determine EC50 values.
As an alternative to co-transfection in a 96 well plate, the U2OS cells were transfected in T225 flasks and the transfected cells were frozen. The frozen cells were thawed and plated on a 96 well plate and the assay was carried out as detailed above. […]
A general note: A reporter such as luciferase makes a cellular process visible.

One may read the fold induction as the ratio of treated to control signal. For the molecule `COC(=O)c1cc(Cl)ccc1NC(=O)CC1SC(=N)NC1=O` (stereo not shown) [Example 52, methyl 5-chloro-2-{[(2-imino-4-oxo-1,3-thiazolidin-5-yl)acetyl]amino}benzoate], the fold induction at 10 µM came out at 1.1 and the Ratio was found to be 1.1.

On to `CCOC(=O)c1c(NC(=O)CC2SC(=N)NC2=O)sc(Br)c1CBr` (stereo not shown) [Example 59, Ethyl 5-bromo-4-(bromomethyl)-2-{[(2-imino-4-oxo-1,3-thiazolidin-5-yl)acetyl]amino}thiophene-3-carboxylate], for which the fold induction at 10 µM amounted to 1.1 and the Ratio is listed as 1.4.

For `CCOC(=O)c1c(NC(=O)CC2SC(=N)NC2=O)sc(C)c1-c1ccccc1` (stereo not shown) [Example 48, ethyl 2-{[(2-imino-4-oxo-1,3-thiazolidin-5-yl)acetyl]amino}-5-methyl-4-phenylthiophene-3-carboxylate], the fold induction at 10 µM amounted to 1.6 and the Ratio is reported as 1.8.

`COC(=O)c1cc(-c2ccc(Cl)cc2)sc1NC(=O)CC1SC(=N)NC1=O` (stereo not shown) [Example 57, methyl 5-(4-chlorophenyl)-2-{[(2-imino-4-oxo-1,3-thiazolidin-5-yl)acetyl]amino}thiophene-3-carboxylate]: the fold induction at 10 µM is 0.9 and the Ratio was found to be 0.8.

Turning to `COC(=O)c1c(NC(=O)CC2SC(=N)NC2=O)sc2c1CCCC2` (stereo not shown) [Example 38, methyl 2-{[(2-imino-4-oxo-1,3-thiazolidin-5-yl)acetyl]amino}-4,5,6,7-tetrahydro-1-benzothiophene-3-carboxylate], the fold induction at 10 µM amounted to 1.3 and the Ratio was determined as 1.4.

Turning to `CCOC(=O)c1c(-c2ccco2)csc1NC(=O)CC1SC(=N)NC1=O` (stereo not shown) [Example 46, ethyl 4-(2-furyl)-2-{[(2-imino-4-oxo-1,3-thiazolidin-5-yl)acetyl]amino}thiophene-3-carboxylate], the fold induction at 10 µM stood at 1.1 and the Ratio stood at 1.0.

In the case of `N=C1NC(=O)C(CC(=O)Nc2cccc(Br)c2)S1` (stereo not shown) [Example 2, N-(3-bromophenyl)-2-(2-imino-4-oxo-1,3-thiazolidin-5-yl)acetamide], the fold induction at 10 µM came to 2 and the Ratio was 1.8.

For the molecule `CC(C)(C)OC(=O)c1cc(-c2ccccc2)sc1NC(=O)CC1SC(=N)NC1=O` (stereo not shown) [Example 55, tert-butyl 2-{[(2-imino-4-oxo-1,3-thiazolidin-5-yl)acetyl]amino}-5-phenylthiophene-3-carboxylate], the fold induction at 10 µM came out at 1.2 and the Ratio amounted to 0.9.

As for `N=C1NC(=O)C(CC(=O)Nc2cccc(Oc3ccccc3)c2)S1` (stereo not shown) [Example 26, 2-(2-imino-4-oxo-1,3-thiazolidin-5-yl)-N-(3-phenoxyphenyl)acetamide], the fold induction at 10 µM worked out at 1.5 and the Ratio is 1.4.

In the case of `N=C1NC(=O)C(CC(=O)Nc2cccc(C(=O)c3ccccc3)c2)S1` (stereo not shown) [Example 27, N-(3-benzoylphenyl)-2-(2-imino-4-oxo-1,3-thiazolidin-5-yl)acetamide], the fold induction at 10 µM is 1.8 and the Ratio is 1.5.

In the case of `COC(=O)c1ccccc1NC(=O)CC1SC(=N)NC1=O` (stereo not shown) [Example 50, methyl 2-{[(2-imino-4-oxo-1,3-thiazolidin-5-yl)acetyl]amino}benzoate], the fold induction at 10 µM is 1.1 and the Ratio came out at 1.0.

As for `CCOC(=O)c1cc(CC)sc1NC(=O)CC1SC(=N)NC1=O` (stereo not shown) [Example 33, ethyl 5-ethyl-2-{[(2-imino-4-oxo-1,3-thiazolidin-5-yl)acetyl]amino}thiophene-3-carboxylate], the fold induction at 10 µM worked out at 1.5 and the Ratio came out at 1.7.

Regarding `N=C1NC(=O)C(CC(=O)NCc2ccc(C(F)(F)F)cc2)S1` (stereo not shown) [Example 12, 2-(2-imino-4-oxo-1,3-thiazolidin-5-yl)-N-[4-(trifluoromethyl)benzyl]acetamide], the fold induction at 10 µM came to 1.1 and the Ratio is listed as 1.0.

With `CCOC(=O)c1cccc(NC(=O)CC2SC(=N)NC2=O)c1` (stereo not shown) [Example 25, ethyl 3-{[(2-imino-4-oxo-1,3-thiazolidin-5-yl)acetyl]amino}benzoate], the fold induction at 10 µM came out at 1.7 and the Ratio was 1.4.

On to `CSc1cccc(NC(=O)CC2SC(=N)NC2=O)c1` (stereo not shown) [Example 15, 2-(2-imino-4-oxo-1,3-thiazolidin-5-yl)-N-[3-(methylthio)phenyl]acetamide], for which the fold induction at 10 µM was 1.5 and the Ratio turned out to be 1.2.

On to `N=C1NC(=O)C(CC(=O)Nc2ccc(F)c(Cl)c2)S1` (stereo not shown) [Example 11, N-(3-chloro-4-fluorophenyl)-2-(2-imino-4-oxo-1,3-thiazolidin-5-yl)acetamide], for which the fold induction at 10 µM was determined as 1.9 and the Ratio stood at 1.7.

Consider `CCOC(=O)c1c(NC(=O)CC2SC(=N)NC2=O)sc(Br)c1C` (stereo not shown) [Example 54, Ethyl 5-bromo-2-{[(2-imino-4-oxo-1,3-thiazolidin-5-yl)acetyl]amino}-4-methylthiophene-3-carboxylate], for which the fold induction at 10 µM stood at 2.6 and the Ratio is listed as 2.6.

On to `COC(=O)c1scc(C)c1NC(=O)CC1SC(=N)NC1=O` (stereo not shown) [Example 43, methyl 3-{[(2-imino-4-oxo-1,3-thiazolidin-5-yl)acetyl]amino}-4-methylthiophene-2-carboxylate], for which the fold induction at 10 µM was 1 and the Ratio amounted to 1.0.

As to `CCOC(=O)c1c(NC(=O)CC2SC(=N)NC2=O)sc2c1CCCCC2` (stereo not shown) [Example 36, ethyl 2-{[(2-imino-4-oxo-1,3-thiazolidin-5-yl)acetyl]amino}-5,6,7,8-tetrahydro-4H-cyclohepta[b]thiophene-3-carboxylate], the fold induction at 10 µM was determined as 1.5 and the Ratio was determined as 1.9.

Regarding `N=C1NC(=O)C(CC(=O)Nc2cccc(OC(F)(F)F)c2)S1` (stereo not shown) [Example 31, 2-(2-imino-4-oxo-1,3-thiazolidin-5-yl)-N-[3-(trifluoromethoxy)phenyl]acetamide], the fold induction at 10 µM stood at 1.7 and the Ratio was 1.5.

In the case of `N=C1NC(=O)C(CC(=O)Nc2cccc(Cl)c2)S1` (stereo not shown) [Example 10, N-(3-chlorophenyl)-2-(2-imino-4-oxo-1,3-thiazolidin-5-yl)acetamide], the fold induction at 10 µM turned out to be 2.2 and the Ratio is 2.2.

With `CCOC(=O)c1c(NC(=O)CC2SC(=N)NC2=O)sc(Br)c1CNc1ccccc1` (stereo not shown) [Example 60, Ethyl 4-(anilinomethyl)-5-bromo-2-{[(2-imino-4-oxo-1,3-thiazolidin-5-yl)acetyl]amino}thiophene-3-carboxylate], the fold induction at 10 µM worked out at 2.7 and the Ratio is reported as 2.4.

Regarding `N=C1NC(=O)C(CC(=O)NCc2ccccc2Cl)S1` (stereo not shown) [Example 23, N-(2-chlorobenzyl)-2-(2-imino-4-oxo-1,3-thiazolidin-5-yl)acetamide], the fold induction at 10 µM came out at 1.2 and the Ratio is given as 1.0.
